Laboratory results published in patent US9994594B2, “Inhibitors of arginase and their therapeutic applications” (MARS, INCORPORATED, priority 2010, dated 2018).
Counter-ions that a name gives are not always drawn. Like-named read-outs stand apart in the source and are kept apart here.

Columns and labels:
[1] = target: T1, human arginase I (ARG I) (Homo sapiens, UniProt P05089); assay: Inhibition of arginase I, spectrophotometric urea assay at 530 nm; format: biochemical; settings: read-out: Potency (ARG I)
T1 sequence (P05089 1-322): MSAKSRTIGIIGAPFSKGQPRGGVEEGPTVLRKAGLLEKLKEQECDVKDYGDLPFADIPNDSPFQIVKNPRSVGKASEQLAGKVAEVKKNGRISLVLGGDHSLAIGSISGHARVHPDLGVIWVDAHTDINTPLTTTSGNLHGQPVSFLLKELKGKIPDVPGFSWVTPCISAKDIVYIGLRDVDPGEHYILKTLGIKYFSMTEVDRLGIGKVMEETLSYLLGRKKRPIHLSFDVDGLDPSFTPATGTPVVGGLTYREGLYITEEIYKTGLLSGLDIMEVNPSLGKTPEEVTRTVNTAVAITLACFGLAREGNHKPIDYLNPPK
How it was run: (§1)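 IC50 was derived by regression of OD530 normalized to uninhibited-enzyme controls against log concentration. Urea from 60-min, 37 °C turnover of L-arginine with manganese sulfate was detected after acid o-phthaldialdehyde/primaquine quench and 10 min colour development. Arginase I and II came from 100 ng/ml stocks in pH 7.4 phosphate with ovalbumin.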

[2] = target: T2, arginase II (ARG II) (Homo sapiens, UniProt P78540); assay: Inhibition of arginase II, spectrophotometric urea assay at 530 nm; format: biochemical
T2 sequence (P78540 23-354): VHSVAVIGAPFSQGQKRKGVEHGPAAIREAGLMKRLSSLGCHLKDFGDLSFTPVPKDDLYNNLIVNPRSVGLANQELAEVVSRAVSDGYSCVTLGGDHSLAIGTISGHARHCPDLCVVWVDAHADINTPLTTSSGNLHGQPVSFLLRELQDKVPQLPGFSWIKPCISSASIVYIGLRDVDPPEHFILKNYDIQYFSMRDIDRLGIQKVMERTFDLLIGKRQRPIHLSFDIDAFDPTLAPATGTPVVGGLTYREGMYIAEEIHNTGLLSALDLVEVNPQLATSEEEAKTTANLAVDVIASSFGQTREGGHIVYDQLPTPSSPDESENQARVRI
How it was run: as §1

[3] = Formula I compounds, Table 2, read-out: Potency (ARG II)
[4] = Formula II compounds, Table 2-A
[5] = Formula II compounds, Table 2-A, read-out: Potency (ARG)

Structure (SMILES) | IC50 ([1]; Formula I compounds, Table 2) | IC50 [2, 3] | IC50 [1, 4] | IC50 [2, 5]
NC(CCCCB(O)O)(CCNCc1ccccc1)C(=O)O (centres unmarked) [compound 70, 2-amino-2-(2-(benzylamino)ethyl)-6-boronohexanoic acid dihydrochloride] | 0.1 to 250 nM | 251 to 1000 nM |  | 
NC(CCCCB(O)O)(C(=O)O)[C@@H]1CC(=O)N(c2ccc(Cl)cc2)C1 (some centres unmarked) [14-A, 2-amino-6-borono-2-[1-(4-chlorophenyl)-5-oxo-pyrrolidin-3-yl]-hexanoic acid hydrochloride] |  |  | 2000 to 5000 nM | 2000 to 5000 nM
NC1CCC(C(N)(CCCCB(O)O)C(=O)O)CC1 (centres unmarked) [20-A, 2-amino-2-(4-aminocyclohexyl)-6-boronohexanoic acid dihydrochloride] |  |  | 251 to 1000 nM | 251 to 1000 nM
NC(CCCCB(O)O)(CCCNCCc1ccc(Cl)cc1Cl)C(=O)O (centres unmarked) [compound 140, 2-amino-6-borono-2-(3-(2,4-dichlorophenethylamino)propyl)hexanoic acid dihydrochloride] | 0.1 to 250 nM | 0.1 to 250 nM |  | 
NC(CCCCB(O)O)(C(=O)O)[C@H]1C[C@@H](NCc2ccc(Cl)cc2)C1 (stereo partly drawn) [Example 82-A, cis-2-amino-6-borono-2-(3-(4-chlorobenzylamino)cyclobutyl)hexanoic acid dihydrochloride] |  |  | 0.1 to 250 nM | 0.1 to 250 nM
NC(CCCCB(O)O)(C(=O)O)[C@H]1C[C@H](NCc2ccccc2)C1 (stereo partly drawn) [Example 75-A, trans-2-amino-2-(3-(benzylamino)cyclobutyl)-6-boronohexanoic acid dihydrochloride] |  |  | 0.1 to 250 nM | 251 to 1000 nM
NC(CCCCB(O)O)(CCN1CCC(Cc2ccc(F)cc2)CC1)C(=O)O (centres unmarked) [compound 127, 2-amino-6-borono-2-(2-(4-(4-fluorobenzyl)piperidin-1-yl)ethyl)hexanoic acid dihydrochloride] | 251 to 1000 nM | 251 to 1000 nM |  | 
NC(CCCCB(O)O)(C(=O)O)C1CCN(C(=O)Nc2ccc(Cl)c(Cl)c2)CC1 (centres unmarked) [Example 42-A, 2-amino-6-borono-2-(1-(3,4-dichlorophenylcarbamoyl)piperidin-4-yl)hexanoic acid] |  |  | 251 to 1000 nM | 1000 to 2000 nM
NC(CCCCB(O)O)(CCN1CCc2sccc2C1)C(=O)O (centres unmarked) [compound 29, 2-amino-6-borono-2-(2-(6,7-dihydrothieno[3,2-c]pyridin-5(4H)-yl)ethyl)hexanoic acid dihydrochloride] | 251 to 1000 nM | 1000 to 2000 nM |  | 
CCN(CC)C(=O)C1CCCN(CCC(N)(CCCCB(O)O)C(=O)O)C1 (centres unmarked) [compound 23, 2-Amino-6-borono-2-[2-(3-diethylcarbamoyl-piperidin-1-yl)-ethyl]-hexanoic acid dihydrochloride] | 251 to 1000 nM | 251 to 1000 nM |  | 
NC(CCCCB(O)O)(CCN1CCC[C@@H]1C(F)(F)F)C(=O)O (stereo partly drawn) [compound 46, 2-amino-6-borono-2-(2-((R)-2-(trifluoromethyl)pyrrolidin-1-yl)ethyl)hexanoic acid dihydrochloride] | > 5000 nM | > 5000 nM |  | 
NC(CCCCB(O)O)(C(=O)O)[C@@H]1CCN(Cc2ccc(F)cc2)C1 (mixture of isomers) [37-A, 2-amino-6-borono-2-((R)-1-(4-fluorobenzyl)pyrrolidin-3-yl)hexanoic acid] |  |  | 251 to 1000 nM | 1000 to 2000 nM
NC(CCCCB(O)O)(C(=O)O)C1CCN(Cc2ccccc2-c2cccnc2)CC1 (centres unmarked) [Example 57-A, 2-amino-6-borono-2-(1-(2-(pyridin-3-yl)benzyl)piperidin-4-yl)hexanoic acid dihydrochloride] |  |  | 0.1 to 250 nM | 251 to 1000 nM
NC(CCCCB(O)O)(CCc1ccccn1)C(=O)O (centres unmarked) [compound 116, 2-amino-6-borono-2-(2-(pyridin-2-yl)ethyl)hexanoic acid dihydrochloride] | 2000 to 5000 nM | 2000 to 5000 nM |  | 
CC(N)(CCCCB(O)O)C(=O)O (centres unmarked) [compound 97, 2-Amino-6-borono-2-methylhexanoic acid hydrochloride] | 2000 to 5000 nM | > 5000 nM |  | 
NC(CCCCB(O)O)(C(=O)O)C(O)C1CCCNC1 (centres unmarked) [compound 110, 2-amino-6-borono-2-(hydroxy(piperidin-3-yl)methyl)hexanoic acid dihydrochloride] | 1000 to 2000 nM | 2000 to 5000 nM |  | 
CCCCC1(NCCC(N)(CCCCB(O)O)C(=O)O)CC1 (centres unmarked) [compound 60, 2-amino-6-borono-2-(2-(1-butylcyclopropylamino)ethyl)hexanoic acid dihydrochloride] | 0.1 to 250 nM | 251 to 1000 nM |  | 

Structure (SMILES) | IC50 ([1]; Formula I compounds, Table 2) | IC50 [2, 3] | IC50 [1, 4] | IC50 [2, 5]
CC(C)CN1Cc2ccccc2CC1CCC(N)(CCCCB(O)O)C(=O)O (centres unmarked) [compound 135, 2-amino-6-borono-2-(2-(2-isobutyl-1,2,3,4-tetrahydroisoquinolin-3-yl)ethyl)hexanoic acid dihydrochloride] | 0.1 to 250 nM | 251 to 1000 nM |  | 
NC(CCCCB(O)O)(C(=O)O)C1CCN(CCCc2ccc(F)cc2F)CC1 (centres unmarked) [Example 52-A, 2-amino-6-borono-2-(1-(3-(2,4-difluorophenyl)propyl)piperidin-4-yl)hexanoic acid dihydrochloride] |  |  | 0.1 to 250 nM | 0.1 to 250 nM
NC(CCCCB(O)O)(C(=O)O)C1CCN(c2cc(C(F)(F)F)ccn2)CC1 (centres unmarked) [9-A] |  |  | 1000 to 2000 nM | 2000 to 5000 nM
NC(CCCCB(O)O)(CCN1CCC[C@@H](C(=O)O)C1)C(=O)O (stereo partly drawn) [compound 53, (3R)-1-(3-amino-7-borono-3-carboxyheptyl)piperidine-3-carboxylic acid] | 2000 to 5000 nM | 2000 to 5000 nM |  | 
NC(CCCCB(O)O)(C(=O)O)C1CCN(Cc2cccc(Cn3cccn3)c2)CC1 (centres unmarked) [Example 65-A, 2-(1-(3-((1H-pyrazol-1-yl)methyl)benzyl)piperidin-4-yl)-2-amino-6-boronohexanoic acid dihydrochloride] |  |  | 0.1 to 250 nM | 0.1 to 250 nM
NC(CCCCB(O)O)(C(=O)O)C1CCN(CCc2ccc(F)c(F)c2)CC1 (centres unmarked) [Example 59-A, 2-amino-6-borono-2-(1-(3,4-difluorophenethyl)piperidin-4-yl)hexanoic acid acid dihydrochloride] |  |  | 0.1 to 250 nM | 0.1 to 250 nM
NC(CCCCB(O)O)(C(=O)O)C1CNCCO1 (centres unmarked) [19-A, 2-amino-6-borono-2-(morpholin-2-yl)hexanoic acid dihydrochloride] |  |  | 2000 to 5000 nM | 2000 to 5000 nM
NC(CCCCB(O)O)(C(=O)O)C1CCN(c2nccc(C(F)(F)F)n2)CC1 (centres unmarked) [2-A, 2-amino-6-borono-2-[(4-Trifluoromethyl-pyrimidin-2-yl)-piperidin-4-yl)-hexanoic acid hydrochloride] |  |  | 1000 to 2000 nM | 2000 to 5000 nM
N[C@](CCCCB(O)O)(CCN1CCSCC1)C(=O)O [compound 8, (R)-2-amino-6-borono-2-(2-thiomorpholinoethyl)hexanoic acid dihydrochloride] | 1000 to 2000 nM | 2000 to 5000 nM |  | 
NC(CCCCB(O)O)(CCN1CCc2ccsc2C1)C(=O)O (centres unmarked) [compound 62, 2-amino-6-borono-2-(2-(4,5-dihydrothieno[2,3-c]pyridin-6(7H)-yl)ethyl)hexanoic acid dihydrochloride] | 251 to 1000 nM | 1000 to 2000 nM |  | 
NC(CCCCB(O)O)(CCCOc1ccc(Cl)cc1)C(=O)O (centres unmarked) [compound 96, 2-Amino-6-borono-2-[3-(4-chlorophenoxy)-propyl]-hexanoic acid hydrochloride] | 1000 to 2000 nM | 1000 to 2000 nM |  | 
NC(CCCCB(O)O)(C(=O)O)C1CCN(Cc2ccc(Cl)cc2)CC1 (centres unmarked) [Example 89-A, 2-amino-6-borono-2-(1-(4-chlorobenzyl)piperidin-4-yl)hexanoic acid dihydrochloride] |  |  | 0.1 to 250 nM | 0.1 to 250 nM
NC(CCCCB(O)O)(CCCNCc1ccc(Cl)c(Cl)c1)C(=O)O (centres unmarked) [compound 141, 2-amino-6-borono-2-(3-(3,4-dichlorobenzylamino)propyl)hexanoic acid dihydrochloride] | 0.1 to 250 nM | 0.1 to 250 nM |  | 
NC(CCCCB(O)O)(C(=O)O)C1CCN(CCc2ccc(Cl)cc2Cl)CC1 (centres unmarked) [Example 47-A, 2-amino-6-borono-2-(1-(2,4-dichlorophenethyl)piperidin-4-yl)hexanoic acid] |  |  | 0.1 to 250 nM | 251 to 1000 nM
CC(C)(C)NCCC(N)(CCCCB(O)O)C(=O)O (centres unmarked) [compound 67, 2-amino-6-borono-2-(2-(tert-butylamino)ethyl)hexanoic acid dihydrochloride] | 251 to 1000 nM | 251 to 1000 nM |  | 
NC(CCCCB(O)O)(CCN1CCC1)C(=O)O (centres unmarked) [compound 75, 2-amino-2-(2-(azetidin-1-yl)ethyl)-6-boronohexanoic acid dihydrochloride] | 251 to 1000 nM | 1000 to 2000 nM |  | 
Cc1ccc(CN2CC[C@@H](C(N)(CCCCB(O)O)C(=O)O)C2)cc1 (stereo partly drawn) [Example 39-A, 2-Amino-6-borono-2-((R)-1-(4-methylbenzyl)pyrrolidin-3-yl)hexanoic acid dihydrochloride] |  |  | 251 to 1000 nM | 251 to 1000 nM
